Laboratory results published in PubChem BioAssay AID1918991 (Molecular Pharmacology Branch, DTP, NCI, 2023).

Test system: 186277-243-T-J2-PDC complex spheroid growth
Experiment: Anticancer human tumor 186277-243-T-J2-PDC patient-derived colon adenocarcinoma cell line growth inhibition [AhR]
Conditions: for IC50: curve of first compound; for viability, T/C: stronger effect = lower value
Outline: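 Agents were dosed in half-log steps down from roughly clinical Cmax, or from 10 microM where Cmax was unknown, alone and with AhR antagonists. Read-out: percent test/control growth of tumor spheroids containing HUVEC and MSC stromal cells.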

[1] = second compound 0.1 µM, first compound 0.00949 µM
[2] = second compound 0.1 µM, first compound 0.03 µM
[3] = second compound 0.1 µM, first compound 0.0949 µM
[4] = second compound 0.1 µM, first compound 0.3 µM
[5] = second compound 0.316 µM, first compound 0.00949 µM
[6] = second compound 0.316 µM, first compound 0.03 µM
[7] = second compound 0.316 µM, first compound 0.0949 µM
[8] = second compound 0.316 µM, first compound 0.3 µM
[9] = second compound 1 µM, first compound 0.00949 µM
[10] = second compound 1 µM, first compound 0.03 µM
[11] = second compound 1 µM, first compound 0.0949 µM
[12] = second compound 1 µM, first compound 0.3 µM
[13] = second compound 3.16 µM, first compound 0.00949 µM
[14] = second compound 3.16 µM, first compound 0.03 µM
[15] = second compound 3.16 µM, first compound 0.0949 µM
[16] = second compound 3.16 µM, first compound 0.3 µM
[17] = second compound 10 µM, first compound 0.00949 µM
[18] = second compound 10 µM, first compound 0.03 µM
[19] = second compound 10 µM, first compound 0.0949 µM
[20] = second compound 10 µM, first compound 0.3 µM
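Further: spheroids exposed to compounds for seven days before the viability read.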
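Wherever viability, T/C is given: luminescent signal used as a stand-in for viable cell amount; 100% = DMSO vehicle control wells.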

Work on COc1ccc([C@@H](O)c2cc(-c3ncnc4cc(N5CCOCC5)ccc34)c(F)cc2Cl)nn1 + Cc1cncc(-c2nc(NCCc3c[nH]c4ccccc34)c3ncn(C(C)C)c3n2)c1 yielded an IC50 (second compound 0.1 µM) of over 10 µM, an IC50 (second compound 0.316 µM) of over 10 µM and an IC50 (second compound 1 µM) of over 10 µM. It also gave an IC50 (second compound 3.16 µM) of over 10 µM, an IC50 (second compound 10 µM) of under 0.0316 µM and a viability, T/C (second compound 0.1 µM, first compound 0.0316 µM) of 103%. For the same compound, the viability, T/C (second compound 0.1 µM, first compound 0.1 µM) was 102%, the viability, T/C (second compound 0.1 µM, first compound 0.316 µM) was 104% and the viability, T/C (second compound 0.1 µM, first compound 1 µM) was 116%. For the same compound, the viability, T/C (second compound 0.1 µM, first compound 3.16 µM) was 94.2%, the viability, T/C (second compound 0.1 µM, first compound 10 µM) was 66.2% and the viability, T/C (second compound 0.316 µM, first compound 0.0316 µM) was 109%. The viability, T/C (second compound 0.316 µM, first compound 0.1 µM) was 102%, the viability, T/C (second compound 0.316 µM, first compound 0.316 µM) was 98.3% and the viability, T/C (second compound 0.316 µM, first compound 1 µM) was 104%. It also gave a viability, T/C (second compound 0.316 µM, first compound 3.16 µM) of 114%, a viability, T/C (second compound 0.316 µM, first compound 10 µM) of 64.4% and a viability, T/C (second compound 1 µM, first compound 0.0316 µM) of 103%. For the same compound, the viability, T/C (second compound 1 µM, first compound 0.1 µM) was 103%, the viability, T/C (second compound 1 µM, first compound 0.316 µM) was 113% and the viability, T/C (second compound 1 µM, first compound 1 µM) was 113%. It also gave a viability, T/C (second compound 1 µM, first compound 3.16 µM) of 99.4%, a viability, T/C (second compound 1 µM, first compound 10 µM) of 68.7% and a viability, T/C (second compound 3.16 µM, first compound 0.0316 µM) of 94%. The viability, T/C (second compound 3.16 µM, first compound 0.1 µM) was 107%, the viability, T/C (second compound 3.16 µM, first compound 0.316 µM) was 115% and the viability, T/C (second compound 3.16 µM, first compound 1 µM) was 106%. It also gave a viability, T/C (second compound 3.16 µM, first compound 3.16 µM) of 101%, a viability, T/C (second compound 3.16 µM, first compound 10 µM) of 55.7% and a viability, T/C (second compound 10 µM, first compound 0.0316 µM) of 23.3%. For the same compound, the viability, T/C (second compound 10 µM, first compound 0.1 µM) was 21.7%, the viability, T/C (second compound 10 µM, first compound 0.316 µM) was 20.6% and the viability, T/C (second compound 10 µM, first compound 1 µM) was 26%. The viability, T/C (second compound 10 µM, first compound 3.16 µM) was 16.6% and the viability, T/C (second compound 10 µM, first compound 10 µM) was 13.2%.
In the case of Nc1ncn(C2CC(O)C(CO)S2)c(=O)n1 (stereo not given) + Cc1cncc(-c2nc(NCCc3c[nH]c4ccccc34)c3ncn(C(C)C)c3n2)c1, the IC50 (second compound 0.1 µM) is reported as over 0.3 µM, the IC50 (second compound 0.316 µM) is reported as over 0.3 µM and the IC50 (second compound 1 µM) is reported as over 0.3 µM. It also gave an IC50 (second compound 3.16 µM) of over 0.3 µM, an IC50 (second compound 10 µM) of over 0.3 µM and a viability, T/C (second compound 0.1 µM, first compound 0.000949 µM) of 102%. The viability, T/C (second compound 0.1 µM, first compound 0.003 µM) was 91.9%, the viability, T/C [1] was 95.1% and the viability, T/C [2] was 129%. It also gave a viability, T/C [3] of 148%, a viability, T/C [4] of 104% and a viability, T/C (second compound 0.316 µM, first compound 0.000949 µM) of 89.5%. For the same compound, the viability, T/C (second compound 0.316 µM, first compound 0.003 µM) was 89.4%, the viability, T/C [5] was 104% and the viability, T/C [6] was 109%. It also gave a viability, T/C [7] of 140%, a viability, T/C [8] of 105% and a viability, T/C (second compound 1 µM, first compound 0.000949 µM) of 98.2%. For the same compound, the viability, T/C (second compound 1 µM, first compound 0.003 µM) was 107%, the viability, T/C [9] was 107% and the viability, T/C [10] was 140%. For the same compound, the viability, T/C [11] was 140%, the viability, T/C [12] was 115% and the viability, T/C (second compound 3.16 µM, first compound 0.000949 µM) was 92.2%. The viability, T/C (second compound 3.16 µM, first compound 0.003 µM) was 89.9%, the viability, T/C [13] was 90% and the viability, T/C [14] was 106%. It also gave a viability, T/C [15] of 121%, a viability, T/C [16] of 98.4% and a viability, T/C (second compound 10 µM, first compound 0.000949 µM) of 79.5%. It also gave a viability, T/C (second compound 10 µM, first compound 0.003 µM) of 80.2%, a viability, T/C [17] of 71.8% and a viability, T/C [18] of 76.9%. For the same compound, the viability, T/C [19] was 70.9% and the viability, T/C [20] was 63.3%.
O=C(C=Cn1cnc(-c2cc(C(F)(F)F)cc(C(F)(F)F)c2)n1)NNc1cnccn1 + Cc1cncc(-c2nc(NCCc3c[nH]c4ccccc34)c3ncn(C(C)C)c3n2)c1 showed an IC50 (second compound 0.1 µM) of 0.43 µM, an IC50 (second compound 0.316 µM) of 0.456 µM and an IC50 (second compound 1 µM) of 0.482 µM. For the same compound, the IC50 (second compound 3.16 µM) was 0.38 µM, the IC50 (second compound 10 µM) was 0.0404 µM and the viability, T/C [1] was 103%. The viability, T/C [2] was 111%, the viability, T/C [3] was 114% and the viability, T/C [4] was 67.2%. The viability, T/C (second compound 0.1 µM, first compound 0.949 µM) was 13.3%, the viability, T/C (second compound 0.1 µM, first compound 3 µM) was 4.12% and the viability, T/C [5] was 110%. For the same compound, the viability, T/C [6] was 105%, the viability, T/C [7] was 124% and the viability, T/C [8] was 73.2%. For the same compound, the viability, T/C (second compound 0.316 µM, first compound 0.949 µM) was 13.6%, the viability, T/C (second compound 0.316 µM, first compound 3 µM) was 4.58% and the viability, T/C [9] was 109%. The viability, T/C [10] was 123%, the viability, T/C [11] was 123% and the viability, T/C [12] was 75.2%. It also gave a viability, T/C (second compound 1 µM, first compound 0.949 µM) of 15.4%, a viability, T/C (second compound 1 µM, first compound 3 µM) of 5.33% and a viability, T/C [13] of 117%. For the same compound, the viability, T/C [14] was 116%, the viability, T/C [15] was 127% and the viability, T/C [16] was 60.1%. It also gave a viability, T/C (second compound 3.16 µM, first compound 0.949 µM) of 15.1%, a viability, T/C (second compound 3.16 µM, first compound 3 µM) of 6.75% and a viability, T/C [17] of 67.5%. For the same compound, the viability, T/C [18] was 60.2%, the viability, T/C [19] was 21.6% and the viability, T/C [20] was 7.78%. The viability, T/C (second compound 10 µM, first compound 0.949 µM) was 3.76% and the viability, T/C (second compound 10 µM, first compound 3 µM) was 3.02%.
